# Patent publication US20250361214A1, “TRIAZINE LIPIDS, LIPID SYNTHESIS, AND METHODS FOR INHIBITING CANONICAL NFKB TRANSCRIPTIONAL ACTIVITY” (University of Kentucky Research Foundation, priority 2022, published 2025)
# Entries after “also recorded” stand apart in the source; their conditions may differ.
# Experiments:
# [1] = Differential scanning calorimetry, transition temperature (Tm) of lipids; format: physicochemical; conditions: liposomes of pure lipid, 10 mM in 20 mM HEPES, DSC
# Protocol: Differential Scanning calorimetery. The transition temperature (Tm) of the lipids was determined using a multicell differential scanning calorimeter (TA Instruments). Liposomes were made with triazine lipids at a concentration of 10 mM in 20 mM HEPES buffer. These were heated to 60° C. and sonicated until the solution was translucent. For Tm determination, 250 μL of the liposome solution was transferred into reusable hastelloy ampoules while 250 μL of the HEPES solution was transferred to the third ampoule, leaving the reference ampoule empty. […] Data was collected over a range of 10-110° C. at a rate of 2° C. min-1 in a heat-cool-heat cycle. After the run was complete, the CpCalc 2.1 software package was used to convert the raw data into a molar heat capacity and the data from the second heating cycle were processed using Microsoft Excel.
# [2] = Size and charge determination of nanoparticles (Zetasizer Nano ZS), Example 1; format: physicochemical
# Description: Size and Charge Determination.
# [3] = Nanoparticle pKa via TNS fluorescence; format: physicochemical; conditions: liposomes of the cationic lipid in buffer, probe 2-(p-toluidino)-6-napthalene sulfonic acid (TNS), 1 µM final, pH 2.5 to 12, read-out: pKa
# Protocol: Determination of Nanoparticle pKa via TNS Fluorescence. […] The solutions were mixed by pipetting and incubated at room temperature for 10 minutes, before being analysed for fluorescence intensity using a 321 nm excitation and 445 nm emission wavelengths.
# [4] = Characterization of nanoparticles (size, zeta potential, DNA encapsulation), Example 2; format: physicochemical; conditions: LNPs made with the cationic lipid
# Protocol: The concentration of DNA in LNPs after dialysis was quantified using an AccuClear® Ultra High Sensitivity dsDNA Quantification Kit (Biotium #31027) and quantified on a BioTek Synergy H1 plate reader. Encapsulation efficiencies were determined by comparing the amount of DNA in the LNP solution vs. the DNA solution used to make them, after disrupting the LNPs with 0.5% Cl2E10 (Abcam #ab146563) and adjusting for volume differences (i.e.: excess volume added during dialysis and dilution volume during ethanol mixture).
# BALB/c mice [5] = experiment: In vivo hAAT transfection efficiency, serum ELISA and ALT; design: species or system mouse
# Protocol: To assess in vivo hAAT transfection efficiency, mice were administered 200 μL nanoparticles or PBS vehicle i.p. at the doses indicated in the figure legend. Seventy-two hours after injection the mice were bled again for assessment of ALT levels and hAAT expression. hAAT levels were determined via ELISA using serum diluted 1:1 in PBS containing 0.05% casein (PBS-C; 124250; Beantown Chemical), as described previously.^38
# BALB/c mice [6] = experiment: Anti-hAAT antibody titers and IgG subclass ratios; format: in vivo, mouse
# Protocol: To assess the presence of antibodies toward hAAT, 50 μL of hAAT (OriGene #RG202082) was plated at 2 μg/mL in carbonate buffer, pH 9.7, on a 96 well high binding plate (Greiner #82050-720) and incubated overnight at 4° C. The next day, the plates were washed with PBS containing 0.1% Tween-20 (PBS-T) and blocked for 1 hour with PBS-C at 37° C. After blocking, serum samples were plated at dilutions ranging from 1:100 to 1:1,000,000 and incubated at 37° C. for 2 hours. Secondary antibody (goat anti-mouse IgG HRP; Invitrogen #16066) diluted 1:2000 was applied for 30 min at 37° C., followed by a 30 min. incubation with tetramethylbenzidine (Rockland). Absorbance at 450 nm was recorded using a BioTek Synergy H1 microplate reader. Reciprocal endpoint titers were determined by plotting A450 values versus known dilutions, calculating the slope of that line, and dividing the slope by two times the average of the blank (no serum) wells.
# Anti-hAAT IgG subclass ratios were assessed as described above, using a single 1:100 sample dilution and the following detection antibodies: goat anti-mouse IgG1-HRP (Abcam ab98693) at 1:10,000, IgG2a-HRP (Abcam ab98698) at 1:5000, IgG2b-HRP (Abcam ab98703) at 1:10,000 and IgG3 (Jackson 115-035-209) at 1:5000. Subclass ratios were calculated by dividing the absorbance of each subclass by that of IgG1 for each individual mouse.
# canonical NFKB = experiment: THP-1-Blue NFKB reporter (SEAP) assay; format: cell-based, human
# J774 murine macrophages = experiment: CD80 expression on macrophages treated with lipid; format: cell-based; conditions: 16 hours
# Description: Increased expression of CD80 after TZ3 treatment aligns with data observed for DOTAP,^109 and supports the hypothesis that cationic lipids activate the non-canonical NFKB pathway leading to enhanced antigen presentation and co-stimulatory molecule expression.
# C57BL/6J mice = experiment: In vivo toxicity of cationic lipid nanoparticles (ALT, IL-6, SCr, mortality)
# [7] = 20 mM lipid, i.p., versus baseline
structure (smiles),measurement,setting,value
CCCCCCCCCCCCN(CCCCCCCCCCCC)c1nc(NCCCN)nc(NCCCN)n1 [Lipid 3],Tm,[1],< 10 °C
same,PDI,[2]; nanoparticles of pure lipid (Table 1),0.41 ± 0.02
same,Size,"[2]; nanoparticles of pure lipid, 1 mM, 25° C. (Table 1)",130 ± 2 nm
same,Charge,"[2]; zeta potential, nanoparticles of pure lipid (Table 1)",52 ± 3 mV
same,pKa,[3],7.37
same,encapsulation of DNA (general),[4],60-70%
same,hAAT levels at 4 weeks,"BALB/c mice [5]; LP transfection, 4 weeks after treatment",persisted at 4 weeks after treatment
same,average hAAT levels in serum,"BALB/c mice [5]; LPs (50% cationic lipid, 50% DOPE), 10,000 ng hAAT plasmid DNA i.p., 72 hours",9.5 ng/mL
same,increase in anti-hAAT titers versus the two control lipids,"BALB/c mice [6]; 25 μg hAAT protein concurrent with 1 mM lipid, day 14",1000 fold
same,increase in antibody titer toward a model antigen,BALB/c mice [6]; absence of additional adjuvants (FIG. 60),greater than 3 orders of magnitude
same,"ratios of IgG2a, 2b and 3 to IgG1",BALB/c mice [6]; hAAT protein delivered with lipids,more balanced IgG2a/IgG1 ratio than DOTAP and DMPC
same,antibody response relative to DOTAP,BALB/c mice [6]; hAAT protein delivery,two orders of magnitude greater than DOTAP
same,RET (anti-hAAT),BALB/c mice [6]; lipid used to deliver the hAAT protein,"> 100,000"
same,anti-hAAT IgG titers,"BALB/c mice [6]; transgene delivery, 10 μg hAAT DNA, day 14, versus untreated mice",significantly higher anti-hAAT titers than untreated mice
same,"Th1/Th2 response (ratios of IgG2a, 2b, and 3 over IgG1)",BALB/c mice [6]; transgenic hAAT delivery with LPs,balanced Th1/Th2 response
same,IC50,"canonical NFKB; Homo sapiens, THP-1-Blue cells stimulated with TNFα, 24 h lipid treatment, read-out: IC50, canonical NFKB inhibition",4 µM
same,IC80,"canonical NFKB; Homo sapiens, canonical NFKB inhibition",10 µM
same,canonical NFKB inhibition,"canonical NFKB; THP-1-Blue cells stimulated with TNFα, listed as TZ3","dose dependent, but not affected by duration of exposure; also recorded: dose dependent inhibition of the canonical NFKB pathway"
same,CD80 expression,"J774 murine macrophages; MFI relative to untreated cells, listed as TZ3","does-dependent increase in mean fluorescence intensity (MFI) of CD80; also recorded: dose-dependent increase in expression of the co-stimulatory molecule, CD80"
same,cell viability (ZombieDye live/dead stain),J774 murine macrophages; across lipid concentrations,cells are viable across lipid concentrations
same,interleukin 6 (IL-6),C57BL/6J mice; [7],trended upward
same,serum alanine aminotransferase (ALT),C57BL/6J mice; [7],trended upward
same,in vivo toxicity (overall),"C57BL/6J mice; 100 μL cationic lipid nanoparticles i.p., listed as TZ3",comparable toxicity to DOTAP; also recorded: does not induce significant in vivo toxicity
